Experimental data: the NIST ThermoML archive (doi:10.1021/je900691n)

Assay: xn = mol fraction of the nth substance listed
Conditions: Liquid, Pycnometric method

COC(=O)OC [dimethyl carbonate] + O=C=O
Conditions | mass density [kg/m3]
313.15 K, 12790 kPa, x1 = 0.1484 | 951
313.15 K, 12900 kPa, x1 = 0.0242 | 816
313.15 K, 12950 kPa, x1 = 0.0481 | 856
313.15 K, 13250 kPa, x1 = 0.118 | 940
313.15 K, 13270 kPa, x1 = 0.0242 | 823
313.15 K, 13310 kPa, x1 = 0.1484 | 955
313.15 K, 13450 kPa, x1 = 0.0481 | 863
313.15 K, 13580 kPa, x1 = 0.086 | 911
313.15 K, 13640 kPa, x1 = 0.0242 | 828
313.15 K, 13730 kPa, x1 = 0.118 | 943
313.15 K, 13790 kPa, x1 = 0.1484 | 957
313.15 K, 13960 kPa, x1 = 0.0242 | 833
313.15 K, 13980 kPa, x1 = 0.0481 | 869
313.15 K, 14120 kPa, x1 = 0.086 | 915
313.15 K, 14140 kPa, x1 = 0.0242 | 836
313.15 K, 14270 kPa, x1 = 0.118 | 947
313.15 K, 14430 kPa, x1 = 0.1484 | 961
313.15 K, 14560 kPa, x1 = 0.0242 | 842
313.15 K, 14620 kPa, x1 = 0.0481 | 877
313.15 K, 14750 kPa, x1 = 0.086 | 920
313.15 K, 14950 kPa, x1 = 0.0242 | 847
313.15 K, 15100 kPa, x1 = 0.1484 | 965
313.15 K, 15210 kPa, x1 = 0.0481 | 882
313.15 K, 15220 kPa, x1 = 0.068 | 924
313.15 K, 15230 kPa, x1 = 0.0242 | 851
313.15 K, 15650 kPa, x1 = 0.1484 | 968
313.15 K, 15900 kPa, x1 = 0.0481 | 890
313.15 K, 15930 kPa, x1 = 0.068 | 930
313.15 K, 16400 kPa, x1 = 0.068 | 933
313.15 K, 16470 kPa, x1 = 0.1484 | 972
317.85 K, 8660 kPa, x1 = 0.0242 | 476
317.85 K, 8710 kPa, x1 = 0.0242 | 485
317.85 K, 8720 kPa, x1 = 0.0242 | 490
317.85 K, 8750 kPa, x1 = 0.0242 | 498
317.85 K, 8780 kPa, x1 = 0.0242 | 506
317.85 K, 8820 kPa, x1 = 0.0242 | 517
317.85 K, 8880 kPa, x1 = 0.0242 | 529
317.85 K, 8930 kPa, x1 = 0.0242 | 542
317.85 K, 9000 kPa, x1 = 0.0242 | 555
317.85 K, 9070 kPa, x1 = 0.0242 | 569
317.85 K, 9150 kPa, x1 = 0.0242 | 583
317.85 K, 9250 kPa, x1 = 0.0242 | 599
317.85 K, 9350 kPa, x1 = 0.0242 | 611
317.85 K, 9500 kPa, x1 = 0.0242 | 628
317.85 K, 9710 kPa, x1 = 0.0242 | 646
317.85 K, 9910 kPa, x1 = 0.0242 | 663
318.15 K, 7340 kPa, x1 = 0.1484 | 884
318.15 K, 7630 kPa, x1 = 0.118 | 856
318.15 K, 7820 kPa, x1 = 0.1484 | 889
318.15 K, 7850 kPa, x1 = 0.118 | 859
318.15 K, 8020 kPa, x1 = 0.086 | 802
318.15 K, 8190 kPa, x1 = 0.118 | 864
318.15 K, 8270 kPa, x1 = 0.1484 | 894
318.15 K, 8410 kPa, x1 = 0.086 | 812
318.15 K, 8550 kPa, x1 = 0.0481 | 683
318.15 K, 8610 kPa, x1 = 0.118 | 870
318.15 K, 8700 kPa, x1 = 0.0481 | 693
318.15 K, 8780 kPa, x1 = 0.1484 | 899
318.15 K, 8830 kPa, x1 = 0.086 | 820
318.15 K, 8880 kPa, x1 = 0.0481 | 706
318.15 K, 9130 kPa, x1 = 0.118 | 876
318.15 K, 9140 kPa, x1 = 0.0481 | 721
318.15 K, 9160 kPa, x1 = 0.086 | 827
318.15 K, 9300 kPa, x1 = 0.1484 | 904
318.15 K, 9450 kPa, x1 = 0.0481 | 735
318.15 K, 9580 kPa, x1 = 0.118 | 882
318.15 K, 9760 kPa, x1 = 0.0481 | 748
318.15 K, 9800 kPa, x1 = 0.1484 | 908
318.15 K, 9810 kPa, x1 = 0.086 | 838
318.15 K, 10180 kPa, x1 = 0.118 | 889
318.15 K, 10200 kPa, x1 = 0.0481 | 758
318.15 K, 10260 kPa, x1 = 0.086 | 845
318.15 K, 10270 kPa, x1 = 0.1484 | 912
318.15 K, 10720 kPa, x1 = 0.1484 | 916
318.15 K, 10740 kPa, x1 = 0.0481 | 777
318.15 K, 10750 kPa, x1 = 0.118 | 895
318.15 K, 10820 kPa, x1 = 0.086 | 853
318.15 K, 11190 kPa, x1 = 0.086 | 858
318.15 K, 11230 kPa, x1 = 0.1484 | 920
318.15 K, 11250 kPa, x1 = 0.0481 | 789
318.15 K, 11280 kPa, x1 = 0.118 | 900
318.15 K, 11720 kPa, x1 = 0.1484 | 924
318.15 K, 11740 kPa, x1 = 0.086 | 865
318.15 K, 11770 kPa, x1 = 0.0481 | 800
318.15 K, 11800 kPa, x1 = 0.118 | 905
318.15 K, 12230 kPa, x1 = 0.086 | 871
318.15 K, 12240 kPa, x1 = 0.0481 | 809
318.15 K, 12260 kPa, x1 = 0.1484 | 928
318.15 K, 12280 kPa, x1 = 0.118 | 909
318.15 K, 12690 kPa, x1 = 0.086 | 876
318.15 K, 12720 kPa, x1 = 0.0481 | 818
318.15 K, 12770 kPa, x1 = 0.118 | 913
318.15 K, 12820 kPa, x1 = 0.1484 | 932
318.15 K, 13270 kPa, x1 = 0.086 | 882
318.15 K, 13280 kPa, x1 = 0.0481 | 826
318.15 K, 13290 kPa, x1 = 0.118 | 918
318.15 K, 13410 kPa, x1 = 0.1484 | 936
318.15 K, 13730 kPa, x1 = 0.0481 | 833
318.15 K, 13750 kPa, x1 = 0.118 | 922
318.15 K, 13840 kPa, x1 = 0.086 | 888
318.15 K, 13900 kPa, x1 = 0.1484 | 939
318.15 K, 14240 kPa, x1 = 0.0481 | 841
318.15 K, 14240 kPa, x1 = 0.118 | 925
318.15 K, 14290 kPa, x1 = 0.086 | 893
318.15 K, 14390 kPa, x1 = 0.1484 | 942
318.15 K, 14710 kPa, x1 = 0.0481 | 847
318.15 K, 14720 kPa, x1 = 0.118 | 929
318.15 K, 14830 kPa, x1 = 0.086 | 898
318.15 K, 15140 kPa, x1 = 0.1484 | 947
318.15 K, 15250 kPa, x1 = 0.118 | 933
318.15 K, 15280 kPa, x1 = 0.086 | 902
318.15 K, 15300 kPa, x1 = 0.0481 | 854
318.15 K, 15760 kPa, x1 = 0.086 | 906
318.15 K, 15770 kPa, x1 = 0.1484 | 950
318.15 K, 15820 kPa, x1 = 0.118 | 937
318.15 K, 16250 kPa, x1 = 0.0481 | 865
318.15 K, 16260 kPa, x1 = 0.118 | 940
318.15 K, 16300 kPa, x1 = 0.086 | 910
318.15 K, 16420 kPa, x1 = 0.1484 | 955
323.15 K, 7960 kPa, x1 = 0.1484 | 862
323.15 K, 8290 kPa, x1 = 0.118 | 829
323.15 K, 8310 kPa, x1 = 0.1484 | 866
323.15 K, 8540 kPa, x1 = 0.118 | 833
323.15 K, 8690 kPa, x1 = 0.086 | 762
323.15 K, 8770 kPa, x1 = 0.1484 | 872
323.15 K, 8880 kPa, x1 = 0.086 | 769
323.15 K, 8960 kPa, x1 = 0.118 | 840
323.15 K, 9020 kPa, x1 = 0.0242 | 394
323.15 K, 9080 kPa, x1 = 0.0242 | 401
323.15 K, 9120 kPa, x1 = 0.0242 | 408
323.15 K, 9170 kPa, x1 = 0.0242 | 417
323.15 K, 9180 kPa, x1 = 0.0481 | 607
323.15 K, 9220 kPa, x1 = 0.086 | 779
323.15 K, 9230 kPa, x1 = 0.0242 | 427
323.15 K, 9250 kPa, x1 = 0.1484 | 877
323.15 K, 9260 kPa, x1 = 0.0481 | 617
323.15 K, 9280 kPa, x1 = 0.0242 | 436
323.15 K, 9310 kPa, x1 = 0.118 | 845
323.15 K, 9350 kPa, x1 = 0.0242 | 447
323.15 K, 9410 kPa, x1 = 0.0242 | 458
323.15 K, 9410 kPa, x1 = 0.0481 | 638
323.15 K, 9480 kPa, x1 = 0.0242 | 470
323.15 K, 9550 kPa, x1 = 0.0242 | 482
323.15 K, 9570 kPa, x1 = 0.0481 | 650
